Consider 14 molecules from PubChem BioAssay (NCI).

Several values for one entry are separate records, joined by “and”; a condition that tells them apart may be missing. Equal values may be shown once.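 How tested: cells in 96-well plates exposed to compound for 48 hours at five concentrations. GI50 = concentration required for 50% inhibition of growth. TGI marks complete inhibition of growth.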 Bounds are passed on as bounds.

Holding throughout (experiment): growth of human tumour cells (NCI), 48 h
Experiment [1] relates to T-47D breast.
Experiment [2] has as its system PC-3 prostate.
Experiment [3] relates to UACC-62 melanoma.
Experiment [4] has as its system RXF 393 renal.
Experiment [5] has as its system SK-OV-3 ovarian.
The test system of experiment [6] is NCI/ADR-RES ovarian.
For experiment [7], the system named is CAKI-1 renal.
The test system of experiment [8] is HOP-92 NSCLC.

As for `c1cc(C2CCCCC2)ccc1-c1cnc2nonc2n1`, the GI50 was 0.631 µM in experiment [1]; 0.789 µM in experiment [2]; 0.393 µM in experiment [3]; 0.514 µM in experiment [4]; 2.21 µM in experiment [5]; 0.466 µM in experiment [6]. The GI50 in experiment [7] is 1.08 µM; in experiment [8], 0.422 µM. The TGI in experiment [1] was 2.78 µM; in experiment [2], 2.56 µM; in experiment [3], 1.96 µM; in experiment [4] it was 1.56 µM; in experiment [5], 5.98 µM; in experiment [6] it was 2.72 µM. Besides, the TGI in experiment [7] turned out to be 3.18 µM; in experiment [8], 2.12 µM.

Take `CC(=O)O[C@@H]1C2=C(C)C3(CC3)[C@@](C)(O)C(=O)C2=C[C@@]1(C)CO`: the GI50 is 0.635 µM in experiment [1]; 1.02 µM in experiment [2]; 1.71 µM in experiment [3]; 0.24 µM in experiment [4]; 1.55 µM in experiment [5]; 0.416 µM in experiment [6]. For the same molecule, the GI50 was 1.5 µM in experiment [7] and 1.87 µM in experiment [8]. In addition, the TGI turned out to be 7.03 µM in experiment [1]; 12.3 µM in experiment [2]; 3.59 µM in experiment [3]; 0.658 µM in experiment [4]; 8.01 µM in experiment [5]; 4.11 µM in experiment [6]. In addition, the TGI was 13.3 µM in experiment [7] and 5.75 µM in experiment [8].

On to `CC(C)(C)C(=O)c1c(C(F)(F)F)n([O-])c2cc(Cl)c(Cl)cc2[n+]1=O`, for which the GI50 in experiment [1] was 0.613 µM; in experiment [2] it was 1.58 µM; in experiment [3], 1.46 µM; in experiment [4], 0.438 µM; in experiment [5], 0.815 µM; in experiment [6], 0.567 µM. The results for the GI50 in experiment [7] and in experiment [8] were 0.248 µM and 1.47 µM, respectively. The TGI stood at 1.29 µM in experiment [1]; 3.03 µM in experiment [2]; 2.77 µM in experiment [3]; 0.909 µM in experiment [4]; 2.07 µM in experiment [5]; 1.37 µM in experiment [6]. Also, the TGI worked out at 0.639 µM in experiment [7] and 2.78 µM in experiment [8].

Consider `NC(Cc1cccnn1)C(=O)O` (stereo unspecified), for which the TGI in experiment [1], in experiment [2], in experiment [3], in experiment [4], in experiment [5] and in experiment [6] was over 100 µM each time. The TGI in experiment [7] and in experiment [8] was over 100 µM each time.

Turning to `Oc1ccc(Cl)cc1Sc1cc(Cl)ccc1O`, the GI50 in experiment [1] was 2.76 µM; in experiment [2], 2.72 µM; in experiment [3], 3.24 µM; in experiment [4], 4.88 µM; in experiment [5], 4.86 µM; in experiment [6] it was 2.48 µM. Besides, the GI50 in experiment [7] was 6.82 µM; in experiment [8] it was 0.421 µM. For the same molecule, the TGI was 20.8 µM and 9.93 µM in experiment [1]; 30.1 µM and 9.58 µM in experiment [2]; 17.1 µM and 10.7 µM in experiment [3]; 31.1 µM and 17.1 µM in experiment [4]; 43.5 µM and 19.1 µM in experiment [5]; 57.8 µM and 7.47 µM in experiment [6]. The TGI in experiment [7] is 34.8 µM and 29.6 µM; in experiment [8], 9.71 µM and 3.43 µM.

For the molecule `CC(C)c1[nH]nc2c(NCc3ccc(-c4ccccn4)cc3)nc(SCCN)nc12`, the GI50 was 0.0182 µM in experiment [1]; 0.0257 µM in experiment [2]; 0.0191 µM in experiment [3]; 0.0169 µM in experiment [4]; 0.0433 µM and 0.0276 µM in experiment [5]; 4.87 µM and 3.56 µM in experiment [6]. Moreover, the GI50 in experiment [7] is 2.47 µM and 2.84 µM; in experiment [8] it was 0.0169 µM and 0.0222 µM. Besides, the TGI in experiment [1] was 0.089 µM; in experiment [2], 4.11 µM and 12.3 µM; in experiment [3], 0.0486 µM; in experiment [4], 0.0532 µM; in experiment [5], 11.4 µM; in experiment [6], 21.3 µM. Moreover, the TGI in experiment [7] turned out to be 14.8 µM.

As to `CC(C)c1[nH]nc2c(NCc3ccc(-c4ccccn4)cc3)nc(SCCN(C)C)nc12`, the GI50 was 0.0319 µM in experiment [1]; 0.0313 µM in experiment [2]; 0.0427 µM in experiment [3]; under 0.0136 µM in experiment [4]; 0.106 µM in experiment [5]; 0.13 µM in experiment [6]. Further, the GI50 in experiment [7] is 0.37 µM; in experiment [8] it was 0.0585 µM. Further, the TGI was found to be 2.69 µM in experiment [1]; 3.81 µM in experiment [2]; 0.4 µM in experiment [3]; 0.0354 µM in experiment [4]; 11.5 µM in experiment [5]; 11.4 µM in experiment [6]. Besides, the TGI in experiment [7] came out at 19.4 µM; in experiment [8] it was 0.468 µM.

With `CN(C)c1cc2c(Nc3ccc4c(cnn4Cc4ccccc4)c3)ncnc2cn1`, the GI50 in experiment [1] is 3.38 µM; in experiment [2], 10 µM; in experiment [3], 6.96 µM; in experiment [4], 8.3 µM; in experiment [5], 0.104 µM; in experiment [6], 5.85 µM. Besides, the values for the GI50 in experiment [7] and in experiment [8] were 0.299 µM and 8.82 µM, respectively. Further, the TGI was over 20.5 µM in experiment [1]; over 25 µM in experiment [2]; 19.9 µM in experiment [3]; over 20.8 µM in experiment [4]; over 25 µM in experiment [5]; over 25 µM in experiment [6]. In addition, the TGI in experiment [7] was over 21.5 µM; in experiment [8] it was over 25 µM.

For the molecule `[Cl][Hg][c]1ccc2ccccc2c1`, the GI50 in experiment [1] is 2.05 µM; in experiment [2], 3.92 µM; in experiment [3] it was 1.81 µM; in experiment [4], 1.62 µM; in experiment [5], 3.87 µM; in experiment [6], 2.41 µM. The GI50 in experiment [7] is 3.64 µM; in experiment [8] it was 1.92 µM. For the same molecule, the TGI in experiment [1] was determined as 4.85 µM; in experiment [2], 11.8 µM; in experiment [3], 4.45 µM; in experiment [4] it was 3.04 µM; in experiment [5], 9.44 µM; in experiment [6], 8.84 µM. For the same molecule, the TGI in experiment [7] came to 6.97 µM; in experiment [8] it was 3.46 µM.

Consider `C#CCOc1cccc(Nc2ncnc3cc(NC(=O)C=C)ccc23)c1`, for which the GI50 in experiment [1] was 3.98 µM; in experiment [2], 8.36 µM; in experiment [3] it was 9.82 µM; in experiment [4], 2.44 µM; in experiment [5] it was 7.88 µM; in experiment [6], 9.66 µM. The GI50 in experiment [7] was 6.08 µM; in experiment [8], 4.77 µM. Further, the TGI in experiment [1] was over 100 µM; in experiment [2] it was over 100 µM; in experiment [3] it was over 100 µM; in experiment [4] it was 13.3 µM; in experiment [5], over 100 µM; in experiment [6] it was over 100 µM. Further, the TGI in experiment [7] is over 100 µM; in experiment [8], 58.4 µM.

For `CCCCSc1nc(N)c2cn[nH]c2n1`, the GI50 in experiment [1] is 8.28 µM; in experiment [2] it was 17.9 µM; in experiment [3], 16.8 µM; in experiment [4] it was 9.25 µM; in experiment [5], 37 µM; in experiment [6], 16.3 µM. The GI50 in experiment [7] is 18.2 µM. Moreover, the TGI in experiment [1] was 52.6 µM; in experiment [2], 41.8 µM; in experiment [3] it was 40.8 µM; in experiment [4], over 44 µM; in experiment [5] it was over 92.3 µM; in experiment [6], 37.4 µM. The figures for the TGI in experiment [7] and in experiment [8] were 44.4 µM and 2.39 µM, respectively.

As for `COc1ccc(/C=C2\COc3ccc(O)c(O)c3C2=O)cc1OC`, the GI50 in experiment [1] was 1.54 µM; in experiment [2], 1.53 µM; in experiment [3], 1.19 µM; in experiment [4] it was 1.44 µM; in experiment [5], 3.83 µM; in experiment [6] it was 1.7 µM. The GI50 in experiment [7] is 1.22 µM; in experiment [8] it was 2.18 µM. Besides, the TGI in experiment [1] is 9.6 µM; in experiment [2], 6.82 µM; in experiment [3], 2.86 µM; in experiment [4], 2.91 µM; in experiment [5] it was over 100 µM; in experiment [6], 17.4 µM. In addition, the TGI in experiment [7] amounted to 2.98 µM; in experiment [8], 5.91 µM.

As for `O=C1c2ccn(CCCNC(CO)(CO)CO)c2C(=O)c2c1c(O)c1ccccc1c2O`, the GI50 in experiment [1] is 16.4 µM; in experiment [2], 14.6 µM; in experiment [3], 24.6 µM; in experiment [4], 24.2 µM; in experiment [5] it was 30.8 µM; in experiment [6], 10.7 µM. Besides, the GI50 was 16.4 µM in experiment [7] and 40 µM in experiment [8]. Further, the TGI in experiment [1] is 50.9 µM; in experiment [2] it was 35.8 µM; in experiment [3], over 61.3 µM; in experiment [4] it was over 61 µM; in experiment [5] it was 96.6 µM; in experiment [6] it was 26.7 µM. In addition, the TGI in experiment [7] was 47.1 µM; in experiment [8], over 86.9 µM.

In the case of `CSc1ccc(NC(=O)Nc2cc(C)ccn2)cc1`, the TGI in experiment [1], in experiment [2], in experiment [3], in experiment [4], in experiment [5] and in experiment [6] was over 100 µM each time. The TGI in experiment [7] and in experiment [8] was over 100 µM throughout.
